Test results from patent US12311056B2, “Composition and method for treatment of neuropsychiatric disorders” (Duke University, priority 2015, dated 2025).

Columns and labels:
[1] = PK analysis of [MPh-IR+Ond-PR2] in the Phase 2A study (24-hour blood PK samples, Day 1 and Day 14)
Source text: Ond-PR2 is a bead formulation prepared from ondansetron as the active pharmaceutical ingredient (API). MPh-IR is an immediate-release generic formulation of methylphenidate. [MPh-IR+Ond-PR2] is a single encapsulated dosage form consisting of MPh-IR and Ond-PR2 as Components 1 and 2, respectively. Following in vitro dissolution testing and PK and safety determinations in normal healthy volunteers (Phase 1 trial), we conducted a proof-of-concept, randomized, double-blind, placebo-controlled Phase 2A safety/efficacy clinical trial. A total of 48 patients residing in a residential program and meeting the DSM-4 criteria for primary psychostimulant abuse were screened, and 30 qualifying subjects were randomized into either [MPh-IR+Ond-PR2] or placebo treatment group.
Single capsules containing either [MPh-IR+Ond-PR2] or dextrose (placebo) were administered once a day for 14 days. Subjects also underwent single fMRI-based assessments 1-7 days before the first study dosing (pre-treatment) and again between Day 3 and 7 days after the last dosing (i.e., post-treatment assessment was performed after complete drug washout). Outcome measures for group comparisons were behavioral rating scales and blood-oxygenation-level-dependent (BOLD) functional imaging results under well-established resting-state, cue-reactivity and Go/noGO task paradigms.
On Day 1 and Day 14, 24-four-hour blood PK samples were collected following single oral administrations of a [MPh-IR+Ond-PR2] capsule to: (1) estimate the PK parameters of the two Components (i.e., MPh-IR and Ond-PR2] by quantifying serum methylphenidate and ondansetron concentrations; and (2) determine whether or not any of these parameters change after single daily administrations for 14 days. Descriptive statistics for blood methylphenidate (MPh-IR) and ondansetron (Ond-PR2) concentrations at each time point were summarized as the mean, standard deviation and coefficient of variation. Estimation and statistical analyses of PK parameters were performed with SAS 9.3, and BABE Solution.

rat animal models of LID = assay: Levodopa-induced abnormal involuntary movement (LIAIM) in 6-OHDA-lesioned rat models of LID; format: in vivo; conditions: 2 weeks s.c. treatment; challenge with 25 mg/kg levodopa two days after last treatment; compared to L_SS
Protocol: First, the dopaminergic neurotoxin 6-hydroxydopamine (6-OHDA) was injected into the right medial forebrain bundle of rats to induce unilateral lesions of the nigrostriatal DA pathway. Starting 3 weeks after 6-OHDA lesion, animals were treated twice daily with levodopa methyl ester (25 mg/kg, i.p., bid immediately preceded by 6.5 mg/kg, i.p. benserazide) for 3 weeks to establish LIAIM. Three hour LIAIM scores were quantified twice a week during the levodopa treatment using standard LIAIM rating scales.
Following LIAIM establishment, animals with combined limb, axial and orolingual LIAIM severity scores>25 were treated with one of the 3 treatment regimens for 2 weeks: (1) pergolide (0.1 mg/kg) followed 3.5 hours later by the 5-HT2A/2C antagonist ketanserin (1 mg/kg) [L_PK group]; (2) pergolide+saline 3.5 hours later [L_PS Group]; and (3) DMSO (1% in saline)+saline 3.5 hours later [L_SS]. All injections were given subcutaneously.
Two days after the last L_PK, L_PS or L-SS treatment, all animals were challenged with 25 mg/kg levodopa and their LIAIM scores were again quantified.

5-HT3 receptors = conditions: cited from earlier work
5-HT1A receptors = biological target: T1, 5-HT1A receptors (Homo sapiens, UniProt P08908); conditions: cited from earlier work
T1 sequence (P08908 1-422): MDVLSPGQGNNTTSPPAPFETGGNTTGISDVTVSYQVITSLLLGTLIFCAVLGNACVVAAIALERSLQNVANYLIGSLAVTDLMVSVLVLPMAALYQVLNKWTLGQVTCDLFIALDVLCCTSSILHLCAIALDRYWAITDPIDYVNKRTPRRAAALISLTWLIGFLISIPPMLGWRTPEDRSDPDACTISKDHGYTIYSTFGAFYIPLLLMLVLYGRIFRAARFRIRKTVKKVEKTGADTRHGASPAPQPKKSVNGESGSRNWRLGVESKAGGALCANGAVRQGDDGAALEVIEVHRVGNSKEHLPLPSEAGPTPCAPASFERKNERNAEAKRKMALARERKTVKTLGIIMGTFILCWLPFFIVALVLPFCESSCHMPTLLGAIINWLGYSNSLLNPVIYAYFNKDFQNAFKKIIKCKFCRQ

adrenergic α2 receptors = conditions: cited from earlier work
5-HT2A receptors = 5-HT2A receptors (Homo sapiens, UniProt P28223); conditions: cited from earlier work
5-HT2C receptors = biological target: T2, 5-HT2C receptors (Homo sapiens, UniProt P28335); conditions: cited from earlier work
T2 sequence (P28335 33-458): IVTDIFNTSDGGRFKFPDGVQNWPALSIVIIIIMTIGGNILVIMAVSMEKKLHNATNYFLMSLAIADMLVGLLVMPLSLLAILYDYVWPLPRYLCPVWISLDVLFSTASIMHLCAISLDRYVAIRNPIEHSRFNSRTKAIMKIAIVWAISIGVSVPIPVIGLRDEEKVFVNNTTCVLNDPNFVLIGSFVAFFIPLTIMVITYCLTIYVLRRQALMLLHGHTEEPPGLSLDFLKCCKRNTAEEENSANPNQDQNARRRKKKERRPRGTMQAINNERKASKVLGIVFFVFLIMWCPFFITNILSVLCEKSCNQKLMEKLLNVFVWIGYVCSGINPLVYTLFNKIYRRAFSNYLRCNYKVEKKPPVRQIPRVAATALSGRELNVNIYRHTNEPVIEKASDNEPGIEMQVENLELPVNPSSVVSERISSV

histamine H1 receptors = histamine H1 receptors (Homo sapiens, UniProt P35367); conditions: cited from earlier work
[2] = cited from earlier work
CYP2D6 = CYP2D6 (Homo sapiens, UniProt P10635); conditions: cited from earlier work
[3] = vs R(−) enantiomer of mirtazapine

Chain of histamine H1 receptors (P35367 whole entry): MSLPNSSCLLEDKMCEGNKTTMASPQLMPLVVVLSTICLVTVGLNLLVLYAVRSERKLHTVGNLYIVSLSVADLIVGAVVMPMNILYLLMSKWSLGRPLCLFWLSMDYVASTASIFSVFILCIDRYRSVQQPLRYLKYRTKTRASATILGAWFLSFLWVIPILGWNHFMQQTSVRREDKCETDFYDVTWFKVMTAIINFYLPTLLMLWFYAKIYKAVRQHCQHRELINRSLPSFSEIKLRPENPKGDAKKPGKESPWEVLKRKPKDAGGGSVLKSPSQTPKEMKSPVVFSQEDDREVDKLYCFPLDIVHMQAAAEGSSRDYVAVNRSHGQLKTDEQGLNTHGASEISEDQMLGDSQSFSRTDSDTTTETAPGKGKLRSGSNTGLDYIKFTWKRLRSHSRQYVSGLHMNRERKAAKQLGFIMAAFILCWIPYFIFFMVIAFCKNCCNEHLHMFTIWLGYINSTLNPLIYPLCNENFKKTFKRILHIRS
Chain of 5-HT2A receptors (P28223 whole entry): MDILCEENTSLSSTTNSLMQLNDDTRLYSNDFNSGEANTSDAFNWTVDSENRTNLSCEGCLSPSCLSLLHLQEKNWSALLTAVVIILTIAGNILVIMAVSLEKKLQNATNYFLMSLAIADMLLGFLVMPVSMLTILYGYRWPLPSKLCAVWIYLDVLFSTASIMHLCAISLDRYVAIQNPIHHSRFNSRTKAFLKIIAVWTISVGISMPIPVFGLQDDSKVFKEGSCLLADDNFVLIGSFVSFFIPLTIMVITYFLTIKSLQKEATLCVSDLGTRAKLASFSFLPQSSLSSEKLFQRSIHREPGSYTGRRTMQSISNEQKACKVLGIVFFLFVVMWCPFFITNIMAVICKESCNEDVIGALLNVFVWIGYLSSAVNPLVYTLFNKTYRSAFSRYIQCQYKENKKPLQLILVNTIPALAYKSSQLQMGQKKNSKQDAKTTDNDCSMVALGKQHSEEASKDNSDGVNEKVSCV
Chain of CYP2D6 (P10635 whole entry): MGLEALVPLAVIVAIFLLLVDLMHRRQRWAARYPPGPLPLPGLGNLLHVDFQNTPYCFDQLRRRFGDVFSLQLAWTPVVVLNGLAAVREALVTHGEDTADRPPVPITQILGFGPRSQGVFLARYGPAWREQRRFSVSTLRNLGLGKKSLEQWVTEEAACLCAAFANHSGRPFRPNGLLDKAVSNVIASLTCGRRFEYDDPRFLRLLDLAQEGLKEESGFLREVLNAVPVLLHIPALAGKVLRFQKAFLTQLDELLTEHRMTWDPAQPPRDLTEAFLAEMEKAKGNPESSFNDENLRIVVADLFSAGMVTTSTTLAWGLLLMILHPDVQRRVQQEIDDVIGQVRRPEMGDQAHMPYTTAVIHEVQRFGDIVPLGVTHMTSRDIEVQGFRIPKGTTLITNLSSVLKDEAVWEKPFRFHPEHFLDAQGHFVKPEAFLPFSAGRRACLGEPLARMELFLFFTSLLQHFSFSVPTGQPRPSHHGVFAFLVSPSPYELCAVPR

## COC(=O)C(c1ccccc1)C1CCCCN1 (stereo not drawn) [Methylphenidate, methylphenidate]
[1]; Day 1, mean
  Cmin (minimum blood concentration before the next administration): 0 ng
  Kel (elimination rate constant): 0.2 h − 1
[1]; Day 14, mean
  AUC (0-24): 21.5 ng·h
  Cmin (minimum blood concentration before the next administration): 0 ng
  Half life(t1/2): 3.1 h
  Kel (elimination rate constant): 0.2 h − 1
[1]; human, in vivo
  AUC(0-t): 21.5 ng·h/mL
  Cmax: 3.4 ng/mL
  half-life: 3.2 h
[1]; human, in vivo, AUC (0-inf), Day 1, mean
  AUC(0-inf): 21.6 ng·h/mL
[1]; human, in vivo, AUC (0-inf), Day 14, mean
  AUC(0-inf): 23.4 ng·h/mL
[1]; human, in vivo, Tmax, Day 1, mean
  Tmax: 1.9 h
[1]; human, in vivo, Tmax, Day 14, mean
  Tmax: 1.7 h
[1]; human, in vivo, po
  Cmax: 4 ng/mL
[1]; once-daily [MPh-IR+Ond-PR2] for 14 days
  Change in Cmax, Cmin, Tmax, t½, AUC (0-24), AUC (0-inf.) and Kel between Day 1 and Day 14: No significant changes

## CCCN1C[C@H](CSC)C[C@@H]2c3cccc4[nH]cc(c34)C[C@H]21 [L_P/S, pergolide]
Rat animal models of LID
  Total LIAIM scores (ratios between post- and pre-reversal treatment scores): No differences

## CN1CCN2c3ncccc3Cc3ccccc3C2C1 (racemic) [Mirtazapine, 1,2,3,4,10,14b-hexahydro-2-methylpyrazino[2,1-a]pyrido[2,3-c]benzazepine]
5-HT3 receptors
  Affinity for 5-HT3 receptors: high affinities
5-HT1A receptors
  Affinity to 5-HT1A receptors: minimal affinity
Adrenergic α2 receptors
  Affinity for adrenergic α2 receptors: high affinities
5-HT2A receptors
  Affinity to 5-HT2A receptors: high affinities
5-HT2C receptors
  Affinity to 5-HT2C receptors: high affinities
Histamine H1 receptors
  Affinity for histamine H1 receptors: high affinities

## CN1CCN2c3ncccc3Cc3ccccc3[C@H]2C1 [esmirtazapine]
[2]; CYP2D6 phenotype
  Clearance in poor metabolizers compared to extensive metabolizers: twice as low
[2]; enantioselective transport process in the gut wall
  Absorption in comparison with the R(−) enantiomer: may be absorbed faster (but not more extensively)
CYP2D6
  Metabolising enzyme: predominantly metabolized by CYP2D6
Adrenergic α2 receptors; [3]
  Affinity for α2 adrenergic receptors in comparison with the R(−) enantiomer: higher affinity
5-HT2C receptors; [3]
  Affinity for 5-HT2C receptors in comparison with the R(−) enantiomer: higher affinity

## Cc1nccn1CC1CCc2c(c3ccccc3n2C)C1=O (stereo not drawn) [Ondansetron, ondansetron]
[1]; human, in vivo
  AUC (0-24): 186.4 ng·h
  AUC(0-inf): 226.4 ng·h
  Change in Cmax, Cmin, Tmax, t½, AUC (0-24), AUC (0-inf.) and Kel between Day 1 and Day 14: No significant changes
  Cmax: 12.6 ng/mL
  Half life(t1/2): 7.2 h
  Kel (elimination rate constant): 0.1 h − 1
  Tmax: 5.8 h
[1]; human, in vivo, AUC (0-24)
  AUC(0-t): 136 ng·h/mL
[1]; human, in vivo, AUC (0-inf)
  AUC(0-inf): 179 ng·h/mL
[1]; human, in vivo, Half life(t1/2)
  half-life: 6.9 h
[1]; human, in vivo, Tmax
  Tmax: 6.3 h
[1]; human, in vivo, po
  Cmax: 11.2 ng/mL
